Here are results for one compound from paper PMC11547513, “Design, Synthesis and Biological Activity Evaluation of β-Carboline Derivatives Containing Nitrogen Heterocycles” (Molecules, 2024).

One data set deals with PC-3 cells. Briefly: Wound healing assay. The format is cell-based, human. The note with it: 24 h, control group 46.41%. The method, then: Given that cell migration plays a pivotal role in tumor cell invasion, to further validate the impact of compound 8q on PC-3 cell motility, a wound healing assay was conducted. […] These findings underscore the potent inhibitory effect of compound 8q on the motility of PC-3 cells. […]
a wound healing assay was performed using the method we previously reported1. In short, PC-3 cells were seeded in a six-well plate at a density of 10 × 105 and incubated at a constant temperature of 37 ℃ and 5% CO2 for 24 h. Then the pipette tip was used to create a uniform wound on the surface of cells. Subsequently, after cleaning twice with PBS, the scratch healing of the 8q treatment group and the positive drug treatment […]
was used to measure and quantify cell migration. […]

Data set [1] relates to PC-3 (human prostate cancer cell). The experiment in a line: MTT assay, in vitro cytotoxicity on PC-3.
Excerpt: (§1) Cells were purchased from the Cell Bank of the Chinese Academy of Sciences (Kunming, China).
Data set [2] concerns K562 (human chronic myeloid leukemia cell). The experiment in a line: MTT assay, in vitro cytotoxicity on K562. A general note: Formazan colour is commonly taken as a measure of viable cells.
Excerpt: as §1

Where two headings read alike, the source gives them in different places.

One may read the melting point as the temperature, or range, at which the solid turns liquid. The IC50 is the concentration that gives 50% inhibition.

`COc1cc(-c2nc(-c3nnc(SCC(=O)Nc4ccc(CN5CCOCC5)cc4)o3)cc3c2[nH]c2ccccc23)cc(OC)c1OC` [Compound 8q, N-(4-(morpholinomethyl)phenyl)-2-((5-(1-(3,4,5-trimethoxyphenyl)-9H-pyrido[3,4-b]indol-3-yl)-1,3,4-oxadiazol-2-yl)thio)acetamide] gave a melting point of 181.8 to 182.7 °C. Also, the “Migration rate of PC-3 cells” value with PC-3 cells (10 μM) was determined as 29.56%. Also, the “Migration rate of PC-3 cells” value with PC-3 cells (20 μM) is 26.32%. The “Migration rate of PC-3 cells” value in the data set on PC-3 cells (30 μM) was determined as 19.99%. Also, the IC50 in data set [1] (Homo sapiens, read-out: IC50 (Mean ± S.D.), PC-3, average of three replicates) is less than 10 µM. The inhibition at 10 µM in data set [1] (Homo sapiens, read-out: Inhibitory Activity/% at 10 μM, PC-3, Table 2 (8 series), 10 μM, average of three replicates, "/" means no anticancer activity) was 46.1 ± 0.74%. Further, the IC50 in data set [1] (read-out: IC50 (Mean ± S.D.), PC-3, average of three replicates) was found to be 9.86 ± 1.03 µM. In addition, the concentration for half-maximal inhibition (IC50) in data set [2] (Homo sapiens, K562, read-out: IC50 (Mean ± S.D.), K562, average of three replicates) came to 11.2 µM. Also, the inhibition at 10 µM in data set [2] (Homo sapiens, K562, read-out: Inhibitory Activity/% at 10 μM, K562) is 25.6 ± 14.9%. The IC50 in data set [2] (read-out: IC50 (Mean ± S.D.), K562, average of three replicates) was 11.7 ± 0.21 µM.
